Here are results for five compounds from publication PMC6021111, “Murine leukemia virus p12 tethers the capsid-containing pre-integration complex to chromatin by binding directly to host nucleosomes in mitosis” (PLoS Pathogens, 2018).

Experiment [1] relates to Glycogen synthase kinase 3 (GSK3). The following applies: cited from earlier work.
Experiment [2] relates to cyclin-dependent kinase 5 (CDK5). Also noted: method as in PMID 12534346. The following applies: cited from earlier work.
In experiment [3] the test system is GST-p12_M63I phosphorylation in 293T cells. Nature of the experiment: Kinase inhibition, GST-p12_M63I phosphorylation (PQ/SR). To be noted: 3.5 h with nocodazole and 10 μM MG132, LiCl 40 mM, roscovitine 75 μM, kenpaullone 40 μM. It is filed as cell-based. The protocol:
(§1) Glycogen synthase kinase 3 (GSK3) and cyclin-dependent kinase 5 (CDK5) were predicted to phosphorylate Mo-MLV p12 on S61, by the NetPhos 3.1 kinase prediction algorithm. […] These drugs were tested in our biochemical assays for their ability to reduce GST-p12_M63I phosphorylation and chromatin association. In our assays, cells transiently-expressing GST-p12_M63I were cultured in media containing nocodazole overnight, prior to the addition of the kinase inhibitors. […] After removal of the drugs, cells were immediately washed and lysed for glutathione-sepharose bead pull-down assays. The eluates from the beads were analysed by SDS-PAGE followed by sequential staining with PQ and SR dyes to quantify the phosphorylation levels of GST-p12_M63I. LiCl treatment had little effect on GST-p12_M63I phosphorylation (Fig 7A, lane 2). […] To correlate GST-p12_M63I phosphorylation with its ability to interact with chromatin, we quantified the amounts of H2B in the pull-down eluates by immunoblotting. […] The short period of kinase inhibition used in our assays, may have limited the effects observed on GST-p12_M63I phosphorylation.
(§2) GST-p12 proteins were expressed in 293T cells from pCAGGS/GST-derived plasmids by transient transfection using Turbofect (Thermo Fisher Scientific). Approximately 24 h after transfection, cells were changed into fresh media containing either 400 ng/ml nocodazole (Sigma) or 2 μg/ml aphidicolin (Sigma) and incubated overnight at 37°C. The synchronisation of the cell cultures after drug treatment was assessed by propidium iodide staining and cell cycle phase analysis by flow cytometry. Cells to be used in pull down assays were washed and lysed in 20 mM Tris pH 8.0, 300 mM NaCl, 1 mM EDTA, 10% Glycerol, 1% Triton X-100, protease inhibitors (Roche), phosphatase inhibitors (Merck). Lysis was facilitated by passing the lysates through a 19-gauge needle x7 and sonication, x7 pulses, 30 s ON and 30 s OFF, in an ice bath (Decon FS100). […] ProQ diamond and Sypro ruby staining (Thermo Fisher Scientific) of gels was visualised and quantified on a ChemiDoc imaging system (Bio-Rad). […]

For experiment [4], the system named is H2B precipitation with GST-p12_M63I, 293T cells. Description: Kinase inhibition, H2B pull-down with GST-p12_M63I. The format is cell-based. The following applies: 3.5 h with nocodazole and 10 μM MG132; roscovitine 75 μM, kenpaullone 40 μM; immunoblot. On the procedure: as §1, §2
The target of experiment [5] is T1, recombinant H3.3 poly-nucleosomes (Homo sapiens, UniProt P62807+P84243+Q93077).
T1 construct: purchased Active Motif
Nature of the experiment: Biolayer interferometry, peptide binding to poly-nucleosomes. The following applies: BLI; biotinylated peptide on streptavidin sensor; HEPES pH 7.5, 150 mM NaCl, 25°C. From the text: To identify whether p12 proteins also interact directly with nucleosomes, we used biolayer interferometry (BLI) to probe the binding of recombinant poly-nucleosomal arrays by p12 CTD peptides (Fig 9). Streptavidin sensor probes coated with biotinylated peptide ligands were immersed in ‘analyte’ solutions containing the in vitro assembled nucleosomal arrays to observe any potential interactions. The p12 CTD peptide sequences used are highlighted in bold in Fig 5C. A peptide carrying the PFV hCBS sequence was included in the assays as a positive control.
The binding of PFV hCBS and p12 CTD peptides to recombinant H3.3 poly-nucleosomes (Active Motif) was measured using biolayer interferometry on an Octet RED system (Pall ForteBio Corp). The peptides were synthesised with a N-terminal biotin tag and GGGG linker. The Mo-MLV, FeLV and GaLV p12 CTD peptide sequences used are highlighted in bold in Fig 5C. A negative control was included that contained an R66A change in the Mo-MLV p12_M63I CTD peptide. Mo-MLV phos p12_M63I CTD was also synthesised with a phosphorylated S61 residue. […] Equilibrium binding amplitudes were determined by exponential least squares curve fitting of the association phase. […] Equilibrium binding constant (Kd) and maximum specific binding (Bmax) were calculated by fitting the data to a non-linear regression model. […]
(BLI is a label-free optical method that tracks binding on a fibre tip over time.)

Experiment [6] deals with nucleosome binding to immobilised biotinylated hCBS. Nature of the experiment: BLI competition, nucleosome binding to immobilised hCBS. To be noted: soluble peptide 100 μM; three technical replicates.
Description: A negative control was included that contained an R66A change in the Mo-MLV p12_M63I CTD peptide. […] The biotinylated peptides were loaded onto streptavidin biosensors (Pall ForteBio Corp) at 0.5 μg/ml for 120 s in 10 mM HEPES pH 7.5, 150 mM NaCl, 0.005% (v/v) Tween 20. […] Experiments were performed at 25°C and sample plates were agitated at 1000 rpm. […] For competition assays, soluble non-biotin tagged peptides were added to the nucleosomal arrays at 100 μM to inhibit nucleosome binding prior to recording BLI measurements with biotinylated peptide immobilised on sensor probes.
The test system of another experiment is nucleosomes. To be noted: cited from earlier work. An excerpt:
To identify whether p12 binds to the same nucleosomal docking site as the CBS from PFV Gag, we then tested the ability of p12 CTD peptides to block the binding of nucleosomal arrays to hCBS and vice versa (Fig 9E and 9F).

As for `O=C1Cc2c([nH]c3ccc(Br)cc23)-c2ccccc2N1` [kenpaullone], the “inhibition of GSK3” value in experiment [1] is given as “inhibits both enzymes”. In experiment [2], the “inhibition of CDK5” value was “inhibits both enzymes”. The “reduction of GST-p12_M63I phosphorylation by kinase inhibitor” value in experiment [3] is on record as ~ 3 fold. For the same compound, the “reduction of H2B precipitation by kinase inhibitor” value in experiment [4] is ~ 3.5 fold.

With `CC[C@H](C)[C@H](NC(=O)[C@@H]1CCCN1C(=O)[C@H](CO)NC(=O)[C@@H]1CCCN1C(=O)[C@H](CC(=O)O)NC(=O)CNC(=O)CNC(=O)CNC(=O)CNC(=O)CCCC[C@@H]1SC[C@@H]2NC(=O)N[C@@H]21)C(=O)N[C@@H](C)C(=O)N[C@@H](CO)C(=O)N[C@@H](CCCNC(=N)N)C(=O)N[C@@H](CC(C)C)C(=O)N[C@@H](CCCNC(=N)N)C(=O)NCC(=O)N[C@@H](CCCNC(=N)N)C(=O)N[C@@H](CCCNC(=N)N)C(=O)N[C@@H](CCC(=O)O)C(=O)N1CCC[C@H]1C(=O)N1CCC[C@H]1C(=O)N[C@H](C(=O)O)C(C)C` [non-phosphorylated p12_M63I], the “binding to nucleosomal arrays” value in experiment [5] is “clear binding to nucleosomes”.

As to `CC[C@H](C)[C@H](NC(=O)[C@@H]1CCCN1C(=O)[C@H](COP(=O)(O)O)NC(=O)[C@@H]1CCCN1C(=O)[C@H](CC(=O)O)NC(=O)CNC(=O)CNC(=O)CNC(=O)CNC(=O)CCCC[C@@H]1SC[C@@H]2NC(=O)N[C@@H]21)C(=O)N[C@@H](C)C(=O)N[C@@H](CO)C(=O)N[C@@H](CCCNC(=N)N)C(=O)N[C@@H](CC(C)C)C(=O)N[C@@H](CCCNC(=N)N)C(=O)NCC(=O)N[C@@H](CCCNC(=N)N)C(=O)N[C@@H](CCCNC(=N)N)C(=O)N[C@@H](CCC(=O)O)C(=O)N1CCC[C@H]1C(=O)N1CCC[C@H]1C(=O)N[C@H](C(=O)O)C(C)C` [phosphorylated p12_M63I], the “binding to nucleosomal arrays” value in experiment [5] was “clear binding to nucleosomes”.

On to “DPSPMASALRGRREPPY [p12_R66A, soluble Mo-MLV p12 CTD peptide with R66A]”, for which the “decrease of equilibrium binding of nucleosomes to immobilised hCBS” value in experiment [6] is recorded as “not hCBS_L539A/R540A or p12_R66A peptides”.

Consider “NQGGYNAAPRTYQP [hCBS_L539A/R540A, hCBS peptide with L539A/R540A mutations, reference compound]”, for which the “decrease of equilibrium binding of nucleosomes to immobilised hCBS” value in experiment [6] is given as “not hCBS_L539A/R540A or p12_R66A peptides”. Further, the “binding of hCBS peptides to nucleosomes” value in the experiment with nucleosomes is listed as “prevent binding of hCBS peptides to nucleosomes”.
